Experimental findings from publication PMC9313812, “The Pseudo‐Natural Product Rhonin Targets RHOGDI” (Angewandte Chemie (International Ed. in English), 2022) are described below.

One assay relates to Shh-LIGHT2 cells. The experiment in a line: GLI-dependent reporter gene assay (RGA). In kind it is cell-based. The note with it: Shh Light2; Figure 2a; mean of three independent experiments. Here is the method:
using a three-fold dilution series starting from a concentration of 30 μM. Half-maximal inhibitory concentrations (IC50) were calculated using the Quattro software suite (Quattro Research, Planegg, Germany) or GraphPad Prism 7 (GraphPad, USA). […]
GLI-dependent reporter gene assay
Shh-LIGHT2 cells were seeded (2.5×10^4 per well) in 96-well plates. After incubation for 16 h, medium was replaced by low serum-containing medium (0.5% FCS) supplemented with 1.5 μM purmorphamine and various concentrations of the compounds or DMSO as a control and cells were incubated for 48 h. […]

A further assay concerns C3H/10T1/2 cells. The experiment in a line: Osteoblast differentiation assay (ODA): purmorphamine-induced osteogenesis, alkaline phosphatase luminescence readout. The note with it: for IC50: Mus musculus, C3H 10T1/2, Table S7, 1.5 µM purmorphamine, 96 h, mean ± SD, n=3, highest test concentration 30 µM, read-out: Osteogenesis IC50. In kind it is cell-based, mouse. The procedure: Supplementary Table S7. Inhibition of osteogenesis assay. C3H10T1/2 cells were incubated with 1.5 µM purmorphamine and compounds or DMSO as a control for 96 h. The activity of alkaline phosphatase was assessed by means of a luminescence readout. Values for cells, which were treated with DMSO and purmorphamine, were set to 100% and data were measured in […]
concentration of 30 µM. All data are mean values of three independent experiments (n = 3) ± […]
Compound Osteogenesis IC50
(§1) (1 picture or pasted object on this page, not shown here)
NIH/3T3 cells were obtained from DSMZ, Germany (DSMZ ACC 59) and were cultured in DMEM (high glucose) supplemented with 10% heat-inactivated FCS, 2 mM L -glutamine and 1 mM sodium pyruvate. Shh -LIGHT2 cells (NIH/3T3 cells stably transfected with a Gli-responsive firefly luciferase reporter plasmid and a pRL-TK constituitive Renilla luciferase expression vector)[4] were cultured in the same culturing medium supplemented with 400 μg ml −1 G418 and 150 μg ml −1 Zeocin as selecting agents. The murine osteoblasts C3H/10T1/2 (ATCC CCL-226) were obtained from ATCC, USA and were cultured in DMEM (high glucose) supplemented with 10% heat-inactivated FCS, 6 mM L -glutamine, 1 mM sodium pyruvate. HEK293T cells (ATCC, England) were grown in DMEM containing 10% FBS, 100 U ml −1 penicillin and 0.1 mg ml −1 streptomycin. All cell lines were maintained at 37 °C and 5% CO 2 in a humidified atmosphere. All the cell lines were regularly assayed for mycoplasma and were confirmed to be mycoplasma-free. Transfection of DNA constructs and siRNAs were performed using FuGENE HD (Promega), Lipofectamine® LTX (Invitrogen) and DharmaFECT™ (GE Healthcare) transfection reagent according to the manufacturer’s […]
Osteoblast differentiation assay
The osteoblast differentiation assay was performed by the Compound Management and Screening Center (COMAS) in Dortmund, Germany. C3H/10T1/2 cells were seeded (800 per well) in white 384-well plates or (6000 per well) in 96-well plates. After incubation for 16 h, compounds or DMSO were added to the cells using the acoustic nanoliter dispenser ECHO 520 (Labcyte) and osteogenesis was induced with 1.5 µM purmorphamine. Plates were incubated for 96 h at 37 °C and 5% CO2. Alkaline phosphatase activity was measured by replacing the medium with osteogenesis-lysis buffer (lysis buffer: 100 mM Tris pH 9.5, 250 mM NaCl, 25 mM MgCl2, 1% Triton X-100, sterile filtered) containing 1:100 chemiluminescent substrate CDP-Star® (Promega, 384-well plates: 35 µL, 96-well plates: 50 µL) for one hour in the dark at 25 °C. In 384-well plates, the luminescence was monitored using the Paradigm plate reader (Molecular Devices, USA), whereas Spark plate reader (Tecan, Austria) was used to measure luminescence in 96-well plates. Dose-response analyses were performed for all hit compounds […]
using a three-fold dilution series starting from a concentration of 30 μM. Half-maximal inhibitory concentrations (IC50) were calculated using the Quattro software suite (Quattro Research, Planegg, Germany) or GraphPad Prism 7 (GraphPad, USA).
The effect of test compounds on the viability of C3H/10T1/2 cells was determined by CellTiter-Glo Luminescence cell viability assay (Promega). Cells were treated as described for the osteogenesis assay prior to addition of the CellTiter-Glo® reagent according to manufacturer’s protocol. Compounds causing at least a 50% reduction in the osteogenesis assay and retaining cell viability of at least 80% were considered as hits. Dose-response analyses were performed for all hit compounds using a three-fold dilution series starting from a concentration of 30 μM. Half-maximal inhibitory concentrations (IC50) were calculated using the Quattro software suite (Quattro Research GmbH). […]

In another assay the test system is C3H10T1/2 cells. Nature of the assay: Osteoblast differentiation in presence of low or high SAG. In kind it is cell-based, mouse. The following applies: low and high concentration of SMO agonist SAG. The procedure: cilia were stained with an antibody against acetylated tubulin. SMO was marked with an anti-SMO antibody and DAPI was used to stain the nuclei. For quantification of cilia, at least 100 cilia per condition and biological replicate were analyzed for the intensity of anti-acetylated tubulin antibody staining. The results of one representative biological replicate are shown and each data point represents the intensity value of one single cilium. Statistical significance was evaluated using an unpaired t-test with a confidence interval of 95 % (p ≤ n.s.). (d and e) Influence Vismodegib (d) or GANT61 (e) on osteoblast diffe rentation of C3H10T1/2 cells in presence of low (0.1 µM) or high (1 µM) concentration of the SMO agonist SAG. Data are mean values of three independent biological replicates (n= 3) ± SD. (f) Fluorescent polarization measurements were performed by titrating 1 μM TAMRA-GDP-bound RAC1 with increasing […]
µM Rhonin. Data are mean values (n = 3) ± SD. (g) Structure of the lysine-reactive probe […]
as §1

Assay [1] deals with T1, NIH/3T3 lysate proteins (Mus musculus, UniProt Q99PT1).
T1 construct: endogenous in cells; host or cells: NIH/3T3
T1 sequence (Q99PT1 2-204): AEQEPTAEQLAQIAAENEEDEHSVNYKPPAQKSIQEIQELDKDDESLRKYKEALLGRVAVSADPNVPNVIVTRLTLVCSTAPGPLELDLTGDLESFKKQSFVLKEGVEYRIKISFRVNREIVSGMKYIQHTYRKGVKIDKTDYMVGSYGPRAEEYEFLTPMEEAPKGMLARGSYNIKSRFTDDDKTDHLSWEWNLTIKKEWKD
The experiment in a line: Affinity chromatography (pulldown) with immobilized probes, HRMS label-free quantification and immunoblotting. In kind it is binding. The following applies: fold excess enriched with active probe 8 vs inactive probe 9. The procedure: (§2) Supplementary Table S8. List of proteins enriched by the active probe 8 as identified by means of affinity chromatography. […]
(§3) on NHS ester magnetic beads. NIH/3T3 lysate was passed on to the probes and target protein identification was performed employing HRMS analysis as described in the methods section.
(§4) The ratios indicate the fold excess of protein enriched with the active probe 8 as compared to […]
(§5) Apart from filamin –B and –C and RHOGDI1, all enriched proteins were known frequent binders in pulldown assays.
(§6) Protein name Gene symbol Ratio
(§7) RHO GDP-dissociation inhibitor 1 Arhgdia 33
(§8) Guanine nucleotide -binding protein subunit beta -2-like
(§9) 1;Guanine nucleotide -binding protein subunit beta -2-like 1, N- Gnb2l1 6 […]
(§10) ATPase inhibitor, mitochondrial Atpif1 4
(§11) Hsc70-interacting protein St13 4
(§12) Tropomyosin alpha -4 chain Tpm4 4
(§13) Ribosome-recycling factor, mitochondrial Mrrf 3
(§14) (1 picture or pasted object on this page, not shown here) […]
(§15) intensities was performed by densitometry of scanned signals with the aid of image studio software (Version 4.0.21, LI-COR Biosciences, ©2014). […]
(§16) Cell lysate preparation for chemical proteomics
(§17) NIH/3T3 cells were grown to 90-95% confluence and were then detached using cell dissociation solution for 5 min at 37 °C and 5% CO2. Cells were suspended in cell culture medium and pelleted by centrifugation at 250 x g, 5 min at 4 °C. Cell pellets were then washed thrice with ice-cold PBS and lysed in lysis buffer containing 50 mM PIPES, 50 mM NaCl, 5 mM MgCl2, 5 mM EGTA, 0.1 % NP40, 0.1 % Triton X-100, 0.1 % Tween®20, with freshly added 1 mM DTT, EDTA-free protease inhibitors (Complete EDTA-free, Roche) and phosphatase inhibitors (PhosphoSTOP, Roche). To assure complete cell lysis, the suspension was passed through […] cannula 10 times each and incubated on ice for 40 min with intermittent vortexing every five minutes until a homogeneous mixture was obtained.
(§18) The resulting homogenate was centrifuged at 18,000 x g for 30 min at 4 °C and the supernatant was subsequently snap frozen in liquid nitrogen and stored at -80 °C. Total protein content was determined by DC protein assay (Bio-Rad, Germany).
(§19) Affinity chromatography enrichment of compound-bound proteins
(§20) 25 µL N-hydroxysuccinimide magnetic beads (GE Healthcare) were activated with 500 µL 1 mM HCl for 1 min. HCl was replaced by 500 µL coupling buffer (0.15 M triethanolamine, […]
(§21) incubated for 2 h at room temperature with overhead rotation. The residual active groups of N-hydroxysuccinimide magnetic were quenched by alternating incubation with 500 µL block A buffer (0.5 M ethanolamine, 0.5 M NaCl, pH 8.3) and block B buffer (0.1 M sodium acetate, 0.5 M NaCl, pH 4.0) for 5 min three times each. For protein binding, the magnetic beads were equilibrated with 500 µL lysis buffer followed by incubation with 500 µL lysate (protein concentration: 2 mg/mL) 2 h at 4 °C with overhead rotation. In order to wash out non-specifically bound proteins, the beads were first washed with 500 µL lysis buffer containing 25 mM MgCl2 followed by three times washing with 500 µL PBS. Tryptic digestion of bead-bound proteins was carried out in two stages. First, bound proteins were reduced by incubating the beads with 50 µL reducing buffer (1 mM DTT, 8 M urea in 50 mM Tris (pH 7.5)) at 30 °C for 30 min with shaking. Later, the reduced proteins were alkylated by addition of 5.5 µL alkylating solution (1 mM DTT, 50 mM chloroacetamide, 8 M urea in 50 mM Tris pH 7.5) and further incubation in the dark at 30 °C for 30 min while shaking at 350 rpm. The reduced and alkylated proteins were digested by adding 1 µg LysC at 37 °C for 1 h while shaking at 350 rpm. The supernatant was transferred to a new tube and the beads were further incubated with 50 mM Tris-HCl (pH 7.5) containing 1 µg trypsin at 37 °C for 1 h while shaking at 350 rpm.
(§22) Both supernatants were combined together and further digested by adding 2 µg trypsin for 16 h at 37 °C with continuous shaking. The enzymatic digestion was stopped by addition of 2 µL […]
Background: Immunoblotting shows a protein as a band on a membrane.

Assay [2] relates to NIH/3T3 lysate proteins. Described as above. It counts as binding. Here is the method: as §2, §3, §4, §5, §6, §7, §8, §9, §10, §11, §12, §13, §14, §15, §16, §17, §18, §19, §20, §21, §22
The mark [3] stands for this setting: fold excess enriched with active probe 8 vs inactive probe 9.

SMILES strings stand for the structures.

With `COC(=O)C1(CCC(C)=O)N=C(c2ccc(Br)cc2)C2C(=O)N(C)C(=O)C21` (stereo not drawn) [7c], the IC50 (commonly the concentration needed to halve the response being measured) with Shh-LIGHT2 cells stood at 8 µM; in the assay with C3H/10T1/2 cells, 6.2 ± 1.3 µM. Moreover, the “Inhibition of Hh-/purmorphamine-induced osteogenesis (in words)” value in the assay with C3H/10T1/2 cells (C3H/10T1/2 cells, purmorphamine) is “active”.
For the compound `COC(=O)C1(CCC(=O)C=Cc2ccccc2)N=C(c2ccc(Br)cc2)C2C(=O)N(C)C(=O)C21` (stereo not drawn) [7e], the IC50 in the assay with Shh-LIGHT2 cells was determined as 4.24 µM; in the assay on C3H/10T1/2 cells, 2.81 ± 0.4 µM.
The like results for `COC(=O)C1(C=CC(=O)c2ccccc2)N=C(c2ccc(Br)cc2)C2C(=O)N(C)C(=O)C21` (stereo not drawn) [7g] were, in that order, 6.15 µM and 3.13 ± 0.2 µM.
For the compound `CS(=O)(=O)c1ccc(C(=O)Nc2ccc(Cl)c(-c3ccccn3)c2)c(Cl)c1` [Vismodegib], the “Potency in osteogenesis in presence of 0.1 μM vs 1 μM SAG (in words)” value in the assay on C3H10T1/2 cells was “decreased potency”.
For the compound `COC(=O)C1(C(CC(=O)c2ccccc2)c2ccc(C(=O)NCCOCCOCCN)cc2)N=C(c2ccc(Br)cc2)C2C(=O)N(C)C(=O)C21` (stereo not drawn) [compound 8], the “Ratio, RHO GDP-dissociation inhibitor 1 (Arhgdia)” value on NIH/3T3 lysate proteins [1] worked out at 33. For the same compound, in the assay on NIH/3T3 lysate proteins [2] (setting [3]), the “Ratio, 60S ribosomal protein L32 (Rpl32)” value is listed as 9; the “Ratio, ATPase inhibitor, mitochondrial (Atpif1)” value came out at 4; the “Ratio, Filamin-B (Flnb)” value was 36; the “Ratio, Filamin-C (Flnc)” value was 27. Also, in the assay with NIH/3T3 lysate proteins [2] (setting [3]), the “Ratio, Guanine nucleotide-binding protein subunit beta-2-like 1 (Gnb2l1)” value is 6; the “Ratio, Hsc70-interacting protein (St13)” value is 4; the “Ratio, Ribosome-recycling factor, mitochondrial (Mrrf)” value was found to be 3; the “Ratio, Tropomyosin alpha-4 chain (Tpm4)” value is given as 4. In the assay with NIH/3T3 lysate proteins [2] (probe 8 compared with control probe 9, NIH/3T3 lysates), the “Enrichment of proteins by probe, immunoblotting after pulldown (in words)” value was “selective enrichment of RHOGDI1”.
